The source of these data is US12642773B2, “Coated drug compositions and methods of preparing the same” (Applied Materials, Inc., priority 2020, dated 2026).

As usually defined, the solubility is how much of the substance goes into solution per volume. Higher therefore signals a readily soluble substance.

Values after ≈ are worked out from the molar mass of the structure shown.

This data set can be described thus: Solubility of ezetimibe. Type of data set: physicochemical. From the text: Crystallization decreases the solubility of ezetimibe. […] In contrast, the release rate from coated 50% drug loading ASD particles barely changed.

Compound `O=C1[C@H](CC[C@H](O)c2ccc(F)cc2)[C@@H](c2ccc(O)cc2)N1c1ccc(F)cc1` [amorphous ezetimibe, ezetimibe] yielded a solubility of 20.2 ± 0.4 µg/mL (≈ 49.3 µM).

Turning to `O=C1[C@H](CC[C@H](O)c2ccc(F)cc2)[C@@H](c2ccc(O)cc2)N1c1ccc(F)cc1` [crystalline ezetimibe, ezetimibe], the solubility worked out at 0.8 ± 0.3 µg/mL (≈ 1.95 µM).
